Data taken from US6908908B2, “Biologically active 4H-benzo [1,4] oxazin-3-ones” (Ortho-McNeil Pharmaceutical, Inc., priority 2000, dated 2005).

target: T1, PPAR γ (Homo sapiens, UniProt P37231); assay: aP2 Assay for Agonist (induction of aP2 mRNA production); format: cell-based; conditions: Table 1; fold increase over vehicle in induction of aP2 mRNA production; further: test concentration or dose not given here
T1 construct: Following the challenge of the preadipocytes, cells may be lysed with lysis buffer; endogenous in cells; host or cells: preadipocytes
T1 sequence (P37231 1-505): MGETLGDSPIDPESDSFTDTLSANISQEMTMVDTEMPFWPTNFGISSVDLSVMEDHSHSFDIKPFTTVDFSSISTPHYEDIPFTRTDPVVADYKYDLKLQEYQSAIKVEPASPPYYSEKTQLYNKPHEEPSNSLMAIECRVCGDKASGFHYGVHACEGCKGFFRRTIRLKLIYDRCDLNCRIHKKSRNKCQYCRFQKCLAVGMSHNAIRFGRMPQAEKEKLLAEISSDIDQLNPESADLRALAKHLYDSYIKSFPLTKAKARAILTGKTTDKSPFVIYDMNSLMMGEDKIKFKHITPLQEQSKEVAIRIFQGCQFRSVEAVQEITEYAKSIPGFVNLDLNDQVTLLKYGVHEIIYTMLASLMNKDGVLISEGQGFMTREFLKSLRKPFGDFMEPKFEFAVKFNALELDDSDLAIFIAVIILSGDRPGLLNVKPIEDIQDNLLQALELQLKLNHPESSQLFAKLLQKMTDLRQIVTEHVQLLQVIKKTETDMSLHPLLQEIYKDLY

SMILES | Agonist Intrinsic Activity
COC(=O)c1ccccc1OCCC1Oc2ccccc2N(Cc2ccc(Cl)cc2)C1=O (stereo not drawn) [Compound 5] | 0.7
COC(=O)Cc1ccccc1OCCC1Oc2ccccc2N(CCC2CCCCC2)C1=O (stereo not drawn) [Compound 65] | 0.8
COC(=O)c1ccccc1OCCC1Oc2ccccc2N(Cc2ccc(C)cc2)C1=O (stereo not drawn) [Compound 1] | 0.9
CC(C)(C)CCCCN1C(=O)C(CCOc2ccccc2CC(=O)O)Oc2ccccc21 (stereo not drawn) [Compound 74] | 22.0
COC(=O)Cc1ccccc1OCCC1Oc2ccccc2N(CCOC(C)=O)C1=O (stereo not drawn) [Compound 47] | 1.3
CCCCCCCCN1C(=O)C(CCOc2ccccc2CC(=O)O)Oc2ccccc21 (stereo not drawn) [Compound 53] | 26.4
NC(=O)CCCCN1C(=O)C(CCOc2ccccc2CC(=O)O)Oc2ccccc21 (stereo not drawn) [Compound 62] | 1.5
CCCSCCN1C(=O)C(CCOc2ccccc2CC(=O)O)Oc2ccccc21 (stereo not drawn) [Compound 116] | 4.0
CCOCCCN1C(=O)C(CCOc2ccccc2CC(=O)O)Oc2ccccc21 (stereo not drawn) [Compound 115] | 40.9
CCCCCCN1C(=O)C(CCOc2ccc(SC(C)(C)C(=O)O)cc2)Oc2ccccc21 (stereo not drawn) [Compound 121] | 16.13
CCCOCCN1C(=O)C(CCOc2ccccc2CC(=O)O)Oc2ccccc21 (stereo not drawn) [Compound 117] | 45.9
CC(F)(F)CCCCN1C(=O)C(CCOc2ccccc2CC(=O)O)Oc2ccccc21 (single isomer, unassigned) [Compound 88] | 45.4
CC(O)CCCCN1C(=O)C(CCOc2ccccc2CC(=O)O)Oc2ccccc21 (stereo not drawn) [Compound 82, Benzeneacetic acid, 2-[2-[3,4-dihydro-4-(5-hydroxyhexyl)-3-oxo-2H-1,4-benzoxazin-2-yl]ethoxy]-] | 4.9
CCCCCCCN1C(=O)C(CCOc2ccccc2CC(=O)OC)Oc2ccccc21 (stereo not drawn) [Compound 50] | 6.2
COC(=O)Cc1ccccc1OCCC1Oc2ccccc2N(CC(=O)OC)C1=O (stereo not drawn) [Compound 45] | 7.2
COC(=O)c1ccccc1OCCC1Oc2ccccc2N(Cc2cccc(C)c2)C1=O (stereo not drawn) [Compound 3] | 0.6
CCCCCCCCCCN1C(=O)C(CCOc2ccccc2CC(=O)OC)Oc2ccccc21 (stereo not drawn) [Compound 56] | 1.0
O=C(O)Cc1cccc(OCCC2Oc3ccccc3N(Cc3cc(C(F)(F)F)cc(C(F)(F)F)c3)C2=O)c1 (stereo not drawn) [Compound 44] | 6.8
O=C(O)Cc1ccccc1OCCC1Oc2ccccc2N(CCCCCF)C1=O (stereo not drawn) [Compound 113] | 29.1
O=C(O)Cc1ccccc1OCCC1Oc2ccccc2N(CCCCCCCF)C1=O (stereo not drawn) [Compound 110] | 64.5
CC(=O)NCCCCCCN1C(=O)C(CCOc2ccccc2CC(=O)O)Oc2ccccc21 (stereo not drawn) [Compound 125] | 10.78

SMILES | Agonist Intrinsic Activity
CCCCCCCCN1C(=O)C(CCOc2ccccc2CC(=O)OC)Oc2ccccc21 (stereo not drawn) [Compound 52] | 1.3
O=C(O)CCc1ccccc1OCCC1Oc2ccccc2N(Cc2cc(C(F)(F)F)cc(C(F)(F)F)c2)C1=O (stereo not drawn) [Compound 42] | 2.1
O=C(O)Cc1ccccc1OCCC1Oc2ccccc2N(CCCCCO)C1=O (stereo not drawn) [Compound 64] | 3.6
O=C1C(CCOc2ccccc2C(F)(F)F)Oc2ccccc2N1Cc1cccc(C(F)(F)F)c1 (stereo not drawn) [Compound 10] | 0.8
CCCCCCCCCCN1C(=O)C(CCOc2ccccc2CC(=O)O)Oc2ccccc21 (stereo not drawn) [Compound 57] | 9.9
O=C(O)Cc1ccccc1OCCC1Oc2ccccc2N(CCCCCCF)C1=O (stereo not drawn) [Compound 91, Benzeneacetic acid, 2-[2-[4-(6-fluorohexyl)-3,4-dihydro-3-oxo-2H-1,4-benzoxazin-2-yl]ethoxy]-] | 64.9
CC(F)(F)CCCCN1C(=O)C(CCOc2ccccc2CC(=O)O)Oc2ccccc21 (stereo not drawn) [Compound 87] | 37.9
CC(F)(F)CCCCCN1C(=O)C(CCOc2ccccc2CC(=O)O)Oc2ccccc21 (stereo not drawn) [Compound 106] | 40.8
CC(C)(C#N)CCCCN1C(=O)C(CCOc2ccccc2CC(=O)O)Oc2ccccc21 (stereo not drawn) [Compound 104] | 26.5
O=C([O-])c1ccccc1OCCC1Oc2ccccc2N(Cc2cccc(C(F)(F)F)c2)C1=O.[Na+] (stereo not drawn) [Compound 26, Benzoic acid, 2-[2-[3,4-dihydro-3-oxo-4-[[3-(trifluoromethyl)phenyl]methyl]-2H-1,4-benzoxazin-2-yl]ethoxy]-, monosodium salt] | 3.1
COC(=O)c1ccccc1OCCC1Oc2ccccc2N(Cc2cccc(C(F)(F)F)c2)C1=O (stereo not drawn) [Compound 9, Benzoic acid, 2-[2-[3,4-dihydro-3-oxo-4-[[3-(trifluoromethyl)phenyl]methyl]-2H-1,4-benzoxazin-2-yl]ethoxy]-, methyl ester] | 0.9
COC(=O)Cc1cccc(OCCC2Oc3ccccc3N(Cc3cccc(C(F)(F)F)c3)C2=O)c1 (stereo not drawn) [Compound 33] | 0.8
CCCCCCCCCN1C(=O)C(CCOc2ccccc2CC(=O)O)Oc2ccccc21 (stereo not drawn) [Compound 55] | 7.1
O=C([O-])CCc1ccccc1OCCC1Oc2ccccc2N(Cc2cccc(C(F)(F)F)c2)C1=O.[Na+] (stereo not drawn) [Compound 30] | 5.6
CS(=O)(=O)NCCCCCCN1C(=O)C(CCOc2ccccc2CC(=O)O)Oc2ccccc21 (stereo not drawn) [Compound 126, Benzeneacetic acid, 2-[2-[3,4-dihydro-3-oxo-4-(6-methanesulfonamidohexyl)-2H-1,4-benzoxazin-2-yl]ethoxy]-] | 12.96
O=C(O)CCCCN1C(=O)C(CCOc2ccccc2CC(=O)O)Oc2ccccc21 (stereo not drawn) [Compound 60] | 1.5
COC(=O)Cc1ccccc1OCCC1Oc2ccccc2N(CCCCC(C)=O)C1=O (stereo not drawn) [Compound 77, Benzeneacetic acid, 2-[2-[3,4-dihydro-3-oxo-4-(5-oxohexyl)-2H-1,4-benzoxazin-2-yl]ethoxy]-, methyl ester] | 9.9
COC(=O)CCc1cccc(OCCC2Oc3ccccc3N(Cc3cccc(C(F)(F)F)c3)C2=O)c1 (stereo not drawn) [Compound 35] | 0.8
O=C([O-])CCCc1ccccc1OCCC1Oc2ccccc2N(Cc2cccc(C(F)(F)F)c2)C1=O.[Na+] (stereo not drawn) [Compound 32] | 8.2
CCCCCCN1C(=O)C(CCOc2ccccc2C(=O)C(=O)O)Oc2ccccc21 (stereo not drawn) [Compound 13, Benzeneacetic acid, 2-[2-(4-hexyl-3,4-dihydro-3-oxo-2H-1,4-benzoxazin-2-yl)ethoxy]-a-oxo-] | 2.6
COC(=O)CCCc1ccccc1OCCC1Oc2ccccc2N(Cc2cccc(C(F)(F)F)c2)C1=O (stereo not drawn) [Compound 31] | 0.9
